Test results reported in patent publication US20020122813A1, “Insect attractants” (priority 1999, published 2002).
Entries after “also recorded” stand apart in the source; their conditions may differ.

Assays:
Anopheles gambiae s.s. = assay: wind tunnel landing bioassay on heated glass cylinders with filter papers; assay type: in vivo; conditions: for landing response compared to water control, comparative bioassay of α-oxo-carboxylic acids: FIG. 5, 6 replicates
Method: Trials used either Aedes aegypti or the Tanzanian KWA strain of Anopheles gambiae s.s., both obtained from the London School of Hygiene and Tropical Medicine. The rearing and bioassay rooms were maintained at 27° C. ±2° and 70% RH ±10%. […] To circumvent this problem we concentrated on investigating the landing responses of An gambiae s.s. on heated glass cylinders treated with sweat and sweat extracts. The bioassay was conducted in a wind tunnel^9 that was connected to 2 identical flight chambers, stainless steel frames 1.0 m long, covered in thin gauge plastic tubing and sealed at both ends with mosquito netting, FIG. 1. Twenty, 5-8 day old An gambiae s.s. females were introduced into each flight chamber. The mosquitoes were activated with 2 pulses of carbon dioxide, diluted with filtered air to give pulses of 0.1% above background. Activated mosquitoes flew upwind and approached heated (34° C., human skin temperature) glass cylinders to which strips of filter paper were attached. […] All bioassays began on the 3rd hour of the night period (21.00 h). To collect sweat, strips of filter paper were strapped around the leg, just above the ankle, of a human volunteer for 24 h. A strip of sweat impregnated filter paper was placed onto one cylinder and a filter paper dampened with […] of distilled water was placed onto the second, the control, cylinder The bioassay was repeated 6 times, the position of the sweat and the control filter papers alternated between bioassays. […] The response to the sweat declined during the bioassay, FIG. 3A, and is probably due to the evaporation of behaviourally active volatiles.

Ae aegypti = conditions: structural activity relationship study of lactic acid analogues; cited from earlier work
Aedes aegypti = assay: wind tunnel landing bioassay on heated glass cylinders with filter papers; assay type: in vivo; conditions: in water at 1 μg/μl; FIG. 4
Method: Trials used either Aedes aegypti or the Tanzanian KWA strain of Anopheles gambiae s.s., both obtained from the London School of Hygiene and Tropical Medicine. The rearing and bioassay rooms were maintained at 27° C. ±2° and 70% RH ±10%. The rearing room was kept on a 12/12 light dark cycle of 170 Wm^−2 and 0.3 Wm^−2 respectively with a 30 minute dusk period of 0.5 Wm^−2 at the day night interface.
To circumvent this problem we concentrated on investigating the landing responses of An gambiae s.s. on heated glass cylinders treated with sweat and sweat extracts. The bioassay was conducted in a wind tunnel^9 that was connected to 2 identical flight chambers, stainless steel frames 1.0 m long, covered in thin gauge plastic tubing and sealed at both ends with mosquito netting, FIG. 1. Twenty, 5-8 day old An gambiae s.s. females were introduced into each flight chamber. The mosquitoes were activated with 2 pulses of carbon dioxide, diluted with filtered air to give pulses of 0.1% above background. Activated mosquitoes flew upwind and approached heated (34° C., human skin temperature) glass cylinders to which strips of filter paper were attached. The number of mosquitoes landing per minute on each filter paper was recorded for 10 min by infra-red sensitive video cameras situated downwind of the flight chambers. All bioassays began on the 3rd hour of the night period (21.00 h). […]

CC(=O)C(=O)O [oxopropanoic acid]
landing response compared to water control, comparative bioassay of α-oxo-carboxylic acids (Anopheles gambiae s.s.): did elicit significant levels of landings

CC(O)C(=O)O (stereo not drawn) [lactic acid, L(+) lactic acid (2-hydroxypropanoic), reference compound]
total number of landings (TNL) (Anopheles gambiae s.s.; in ethanol at 0.2 μg/μl vs ethanol control): 167
landing response compared to control (significance) (Anopheles gambiae s.s.; in ethanol at 0.2 μg/μl vs ethanol control, P>0.05): did not elicit significant levels of landings

CCCC(=O)C(=O)O [2-oxopentanoic acid]
attractiveness relative to lactic acid (Ae aegypti): as attractive as lactic acid
landing response (significance) (Aedes aegypti): elicited significant levels of landings; also recorded: did elicit significant levels of landings
landing response compared to water control, comparative bioassay of α-oxo-carboxylic acids (Anopheles gambiae s.s.): greatest response
time of peak of landing response (Anopheles gambiae s.s.; during 10 min bioassay): 4 min
total number of landings (TNL) (Anopheles gambiae s.s.; in water at 1 μg/μl vs water control): 352
landing response compared to control (significance) (Anopheles gambiae s.s.; in water at 1 μg/μl vs water control, P<0.001): did elicit significant levels of landings

CCC(=O)C(=O)O [oxobutanoic acid]
landing response compared to water control, comparative bioassay of α-oxo-carboxylic acids (Anopheles gambiae s.s.): did elicit significant levels of landings

CCO [ethanol]
total number of landings (TNL) (Anopheles gambiae s.s.; ethanol vs blank control): 141
landing response compared to control (significance) (Anopheles gambiae s.s.; ethanol vs blank control, P>0.05): not a significant difference

CC(C)C(=O)C(=O)O [3-methyl,2-oxobutanoic acid]
landing response compared to water control, comparative bioassay of α-oxo-carboxylic acids (Anopheles gambiae s.s.): did elicit significant levels of landings
